These results are taken from patent publication US8518876B2, “Composition for long-acting peptide analogs” (Pharmaln Corporation, priority 2007, dated 2013).

For orientation: Kd means a measure of binding affinity in units of concentration.

The assay in a line: Binding of C12TerA to hydrophobic polymeric carrier (Scatchard plot, bound/free by HPLC). The conditions noted are these: carrier 2.5 mg/tube, PBS, incubated overnight; estimated, plot not completely linear. From the text: FIG. 17: This figure is a Scatchard plot showing the binding of C12TerA to polymeric carrier containing a hydrophobic group disclosed in U.S. patent application Ser. No. 11/613,183, which is hereby incorporated by reference. The carrier also referred to as PGC-HC18 or 20PLPEG555-C18 is made up of polylysine of 15-30 kDa where 55% of the amino group is covalently modified to contain 5 kDa methoxypolyethylene glycol attached by through succinate linker and the remaining 45% of the amino group is amide bonded to stearic acid carboxyl group all disclosed in U.S. patent application Ser. No. 11/613,183. […] The filtrate containing […] C12TerA was quantified by HPLC. […] It should be noted that some C12TerA can form micelle and may be counted as bound due to the analytical techniques used.
FIG. 17 is a Scatchard plot showing the binding of C12TerA to polymeric carrier containing a hydrophobic group disclosed in U.S. patent application Ser. No. 11/613,183, which is hereby incorporated by reference. […] The filtrate containing […] C12TerA was quantified by HPLC. […] It should be noted that some C12TerA can form micelle and may be counted as bound due to the analytical techniques used.
The amount of C12TerA capable of being bound to a carrier was determined by varying the amount of the analog in the presence of 10 mg/ml hydrophobic group containing carrier PGC-HC18 or 20PLPEG555-C18. […]

Where a SMILES comes first, the peptide text is derived from it. Bridges are numbered along the chain shown (N, C = ends). The star is where a group is joined. Lauroyl = CCCCCCCCCCCC(=O)*

For `CCCCCCCCCCCC(=O)NCC(=O)NCC(=O)NCC(=O)N[C@H]1CSSC[C@@H](C(=O)N2CCC[C@H]2C(=O)N[C@@H](CCCCN)C(=O)NCC(N)=O)NC(=O)[C@H](CC(N)=O)NC(=O)[C@H](CCC(N)=O)NC(=O)[C@H](Cc2ccccc2)NC(=O)[C@H](Cc2ccc(O)cc2)NC1=O` [C12TerA, CH3(CH2)10CO-Gly-Gly-Gly-Cys-Tyr-Phe-Gln-Asn-Cys-Pro-Lys-Gly-NH2] (Lauroyl-GGGCYFQNCPKG-NH2; disulfide 4-9), the Kd was 1000 to 5000 nM.
